≈ marks a conversion by molar mass, not a printed value. Read-outs that look alike come from different tables or passages of the source.
Tests used:
Type in all cases: cell-based
[1] = system: S. aureus 29213; test: MIC broth microdilution, standard panel: S. aureus 29213; details: Staphylococcus aureus, standard panel of organisms
Description: (§1) Bacterial isolates were cultivated from −70° C. frozen stocks by two consecutive overnight passages at 35° C. in ambient air on 5% blood agar (Remel, Lenexa, Kans.). Clinical isolates tested were from a collection composed of isolates collected during clinical trials and recent clinical isolates obtained from various geographically diverse hospitals in the US. Quality control and primary panel strains were from the American Type Culture Collection (ATCC; Rockville, Md.), with the exception of P. aeruginosa PAO200, a strain with a deletion of the mexABoprM genes that was received from Dr. H. Schweizer. […] Strain Z61 (ATCC 35151) is also hypersusceptible to antibacterials. It is thought that the hypersusceptibility of this strain is the result of increased permeability of its outer membrane (Angus B L et al, Antimicrobial Agents and Chemotherapy 1982 21,299-309: Outer membrane permeability in Pseudomonas aeruginosa: Comparison of a wild-type with an antibacterial-supersusceptible mutant).
(§2) Minimum Inhibitory Concentrations (MICs) were determined by the broth microdilution method in accordance with the National Committee for Clinical Laboratory Standards (NCCLS) guidelines. In brief, organism suspensions were are adjusted to a 0.5 McFarland standard to yield a final inoculum between 3×10^5 and 7×10^5 colony-forming units (CFU)/mL. Drug dilutions and inocula were made in sterile, cation adjusted Mueller-Hinton Broth (Remel). An inoculum volume of 100 μl was added to wells containing 100 μl of broth with 2-fold serial dilutions of drug. All inoculated microdilution trays were incubated in ambient air at 35° C. for 18-24 hours. Following incubation, the lowest concentration of the drug that prevented visible growth was recorded as the MIC. Performance of the assay was monitored by the use of laboratory quality-control strains against tobramycin, that has a defined MIC spectrum, in accordance with NCCLS guidelines.

[2] = system: P. aeruginosa PAO200 mexAB; test: MIC broth microdilution, standard panel: P. aeruginosa PAO200 mexAB; details: Pseudomonas aeruginosa, PAO200MEXAB, read-out: MIC P. aeruginosa PAO200 mexAB
Description: as §1, §2

[3] = system: Pseudomonas aeruginosa cystic fibrosis isolate 3236; test: MIC vs cystic fibrosis isolate of P. aeruginosa 3236 (sensitive to most antibacterials); details: strain 3236, Sensitive, LpxC inhibitors, MIC key class
Description: (§3) Bacterial isolates were cultivated from −70° C. frozen stocks by two consecutive overnight passages at 35° C. in ambient air on 5% blood agar (Remel, Lenexa, Kans.). Clinical isolates tested were from a collection composed of isolates collected during clinical trials and recent clinical isolates obtained from various geographically diverse hospitals in the US. Quality control and primary panel strains were from the American Type Culture Collection (ATCC; Rockville, Md.), with the exception of P. aeruginosa PAO200, a strain with a deletion of the mexABoprM genes that was received from Dr. H. Schweizer.
as §2, with “MIC.” for “MIC. Performance of the assay was monitored by the use of laboratory quality-control strains against tobramycin, that has a defined MIC spectrum, in accordance with NCCLS guidelines.”

[4] = system: Pseudomonas aeruginosa cystic fibrosis isolate 2196; test: MIC vs cystic fibrosis isolate of P. aeruginosa 2196 (resistant to ciprofloxacin); details: strain 2196, Cipro R, LpxC inhibitors, MIC key class
Description: as §3
as §2, with “MIC.” for “MIC. Performance of the assay was monitored by the use of laboratory quality-control strains against tobramycin, that has a defined MIC spectrum, in accordance with NCCLS guidelines.”

[5] = system: Acinetobacter calcoaceticus; test: MIC vs non-fermenting organisms: Acinetobacter calcoaceticus; details: Acinet. calc., MIC key class
Description: as §3
as §2, with “MIC.” for “MIC. Performance of the assay was monitored by the use of laboratory quality-control strains against tobramycin, that has a defined MIC spectrum, in accordance with NCCLS guidelines.”

[6] = system: Alcaligenes xylosoxidans; test: MIC vs non-fermenting organisms: Alcaligenes xylosoxidans; details: Achromobacter xylosoxidans; Alcal. xyl; MIC key class
Description: as §3
as §2, with “MIC.” for “MIC. Performance of the assay was monitored by the use of laboratory quality-control strains against tobramycin, that has a defined MIC spectrum, in accordance with NCCLS guidelines.”

[7] = system: Stenotrophomonas maltophilia; test: MIC vs non-fermenting organisms: Stenotrophomonas maltophilia; details: Stenotrophomonas maltophilia, S. malt.; MIC key class; read-out: MIC
Description: as §3
as §2, with “MIC.” for “MIC. Performance of the assay was monitored by the use of laboratory quality-control strains against tobramycin, that has a defined MIC spectrum, in accordance with NCCLS guidelines.”

[8] = system: Enterobacter aerogenes; test: MIC vs enteric organisms: Enterobacter aerogenes; details: Klebsiella aerogenes; E. aer.; MIC key class
Description: as §3
as §2, with “MIC.” for “MIC. Performance of the assay was monitored by the use of laboratory quality-control strains against tobramycin, that has a defined MIC spectrum, in accordance with NCCLS guidelines.”

[9] = system: Escherichia coli; test: MIC vs enteric organisms: Escherichia coli clinical isolates; details: Escherichia coli, MIC key class, read-out: MIC
Description: as §3
as §2, with “MIC.” for “MIC. Performance of the assay was monitored by the use of laboratory quality-control strains against tobramycin, that has a defined MIC spectrum, in accordance with NCCLS guidelines.”

[10] = system: Klebsiella oxytoca; test: MIC vs enteric organisms: Klebsiella oxytoca; details: K. oxy., MIC key class
Description: as §3
as §2, with “MIC.” for “MIC. Performance of the assay was monitored by the use of laboratory quality-control strains against tobramycin, that has a defined MIC spectrum, in accordance with NCCLS guidelines.”

[11] = system: Pseudomonas aeruginosa cystic fibrosis isolate 3232; test: MIC vs cystic fibrosis isolate of P. aeruginosa 3232 (Ceftaz. R); details: strain 3232, Ceftaz. R, LpxC inhibitors, MIC key class

Row | SMILES | MIC [1] [µg/mL] | MIC [2] [µg/mL] | MIC [3] [µg/mL] | MIC [4] [µg/mL] | MIC [5] [µg/mL] | MIC [6] [µg/mL] | MIC [7] [µg/mL] | MIC [8] [µg/mL] | MIC ([9]; E. coli 1619) [µg/mL] | MIC ([9]; E. coli 2788) [µg/mL] | MIC [10] [µg/mL] | MIC [11] [µg/mL]
1 | C[C@@H](O)[C@H](NC(=O)c1ccc(C#Cc2ccccc2)cc1)C(=O)NO [Example 12, N-(1-(N-hydroxycarbamoyl)(1S,2R)-2-hydroxypropyl)[4-(2-phenylethynyl)phenyl]carboxamide] | > 50 | < 6.25 | < 6.25 | 6.25 to 50 (≈ 18.5 to 148 µM) | < 6.25 | < 6.25 | < 6.25 | > 50 | < 6.25 | < 6.25 | < 6.25 | < 6.25
2 | C[C@@H](N)[C@H](NC(=O)c1ccc(C#Cc2ccccc2)cc1)C(=O)NO [Example 13] | > 50 | < 6.25 | < 6.25 | < 6.25 | > 50 | < 6.25 | 6.25 to 50 (≈ 18.5 to 148 µM) | > 50 | < 6.25 | < 6.25 | < 6.25 | < 6.25
3 | C[C@@H](O)[C@H](NC(=O)c1ccc(C#CC#Cc2ccccc2)cc1)C(=O)NO [Example 19, N-(1-(N-hydroxycarbamoyl)(1S,2R)-2-hydroxypropyl)[4-(4-phenylbuta-1,3-diynyl)phenyl]carboxamide] | 6.25 to 50 (≈ 17.2 to 138 µM) | < 6.25 | < 6.25 | < 6.25 | < 6.25 | 6.25 to 50 (≈ 17.2 to 138 µM) | 6.25 to 50 (≈ 17.2 to 138 µM) | < 6.25 | < 6.25 | < 6.25 | < 6.25 | < 6.25
4 | CCc1ccc(-c2ccc(C(=O)N[C@@H](CN)C(=O)NO)cc2)cc1 [Example 280, N-[(1S)-1-(aminomethyl)-2-(hydroxyamino)-2-oxoethyl]-4′-ethyl-1,1-biphenyl-4-carboxamide] | > 50 | < 6.25 | < 6.25 | 6.25 to 50 (≈ 19.1 to 153 µM) | > 50 | 6.25 to 50 (≈ 19.1 to 153 µM) | 6.25 to 50 (≈ 19.1 to 153 µM) | > 50 | < 6.25 | < 6.25 | > 50 | < 6.25
5 | C[C@@H](O)[C@H](NC(=O)c1ccc(-c2ccc(Br)cc2)cc1)C(=O)NO [Example 315, 4′-bromo-N-{(1S,2R)-2-hydroxy-1-[(hydroxyamino)carbonyl]propyl}-1,1′-biphenyl-4-carboxamide] | > 50 | < 6.25 | < 6.25 | < 6.25 | > 50 | 6.25 to 50 (≈ 15.9 to 127 µM) | < 6.25 | > 50 | < 6.25 | < 6.25 | > 50 | < 6.25
6 | NC[C@H](NC(=O)c1ccc(C#CC#Cc2ccccc2)cc1)C(=O)NO [Example 481, N-[(1S)-1-(aminomethyl)-2-(hydroxyamino)-2-oxoethyl]-4-(4-phenylbuta-1,3-diynyl)benzamide] | > 50 | < 6.25 | < 6.25 | < 6.25 | > 50 | > 50 | > 50 | > 50 | < 6.25 | < 6.25 | < 6.25 | < 6.25
7 | NC[C@H](NC(=O)c1ccc(C#Cc2ccc(NC(=O)CNC3CC3)cc2)cc1)C(=O)NO [Example 516, N-[(1S)-1-(aminomethyl)-2-(hydroxyamino)-2-oxoethyl]-4-[(4-{[(cyclopropylamino)acetyl]amino}phenyl)ethynyl]benzamide] | > 50 | < 6.25 | < 6.25 | < 6.25 | > 50 | > 50 | > 50 | > 50 | < 6.25 | 6.25 to 50 (≈ 14.4 to 115 µM) | > 50 | < 6.25
8 | C[C@@H](O)[C@H](NC(=O)c1ccc(C#CC#Cc2ccc(NC(=O)CNc3ccccc3)cc2)cc1)C(=O)NO [Example 777, N-{(1S,2R)-2-hydroxy-1-[(hydroxyamino)carbonyl]propyl}-4-[4-(4-{[(phenylamino)acetyl]amino}phenyl)buta-1,3-diynyl]benzamide] | > 50 | < 6.25 | < 6.25 | < 6.25 | < 6.25 | 6.25 to 50 (≈ 12.2 to 97.9 µM) | > 50 | 6.25 to 50 (≈ 12.2 to 97.9 µM) | < 6.25 | < 6.25 | < 6.25 | < 6.25
9 | CCc1ccc(-c2ccc(C(=O)N[C@H](C(=O)NO)[C@@H](C)N)cc2)cc1 [Example 779, N-{(1S,2R)-2-amino-1-[(hydroxyamino)carbonyl]propyl)-4′-ethyl-1,1′-biphenyl-4-carboxamide] | > 50 | < 6.25 | < 6.25 | < 6.25 | > 50 | < 6.25 | 6.25 to 50 (≈ 18.3 to 146 µM) | > 50 | < 6.25 | < 6.25 | 6.25 to 50 (≈ 18.3 to 146 µM) | < 6.25
10 | C[C@@H](O)[C@H](NC(=O)c1ccc(C#CC#Cc2ccc(NC(=O)CNc3ccccn3)cc2)cc1)C(=O)NO [Example 801, N-{(1S,2R)-2-hydroxy-1-[(hydroxyamino)carbonyl]propyl}-4-[4-(4-{[(pyridin-2-ylamino)acetyl]amino}phenyl)buta-1,3-diynyl]benzamide] | > 50 | < 6.25 | < 6.25 | < 6.25 | 6.25 to 50 (≈ 12.2 to 97.7 µM) | > 50 | > 50 | 6.25 to 50 (≈ 12.2 to 97.7 µM) | < 6.25 | < 6.25 | < 6.25 | < 6.25
